Source: paper PMC10771296, “Plectasin: from evolution to truncation, expression, and better druggability” (Frontiers in Microbiology, 2023)
Converted amounts (≈) assume the structure as drawn. Where a SMILES comes first, the peptide text is derived from it. Bridges are numbered along the chain shown (N, C = ends).

What was measured:
S. aureus ATCC43300 [1] = assay: Stability in simulated (artificial) intestinal fluid read out as MIC; type: in vitro ADME, Staphylococcus aureus
Description: (§1) The stability of Ple-AB was assessed based on its antibacterial activity against S. aureus ATCC43300. Temperature stability was determined by incubation at 20, 40, 60, 80, and 100°C for 1 h ([Li et al., 2020]). The pH stability was determined by incubation in buffers with a pH of 2, 4, 6, 8, and 10 for 4 h ([Yang et al., 2017]). The peptides were incubated with different concentrations of metal ions, serum, artificial gastric fluid, and simulated intestinal fluid to assess their stability in the blood and intestines ([Lyu et al., 2019]). All the treatments were performed in triplicates.

S. aureus ATCC43300 [2] = assay: Stability in simulated (artificial) gastric fluid read out as MIC; type: in vitro ADME, Staphylococcus aureus
Description: as §1

[3] = system: murine macrophage RAW 264.7; assay: Cytotoxicity, MTT assay; type: cell-based, mouse
Description: The cytotoxicity of Ple-AB toward the murine macrophage RAW 264.7 (Peking Union Medical College) was tested using the MTT assay ([Wang et al., 2018]). Cells (2.5 × 10^4 CFU/mL) were incubated at 37°C for 24 h, and thereafter Ple-AB at a concentration of 2–256 μg/mL was added for 24 h. The supernatant was washed twice, […] 3-(4,5-dimethylthiazol-2-yl)-2,5-diphenyltetrazolium bromide (MTT) solution was added, and the mixture was incubated for 4 h. The absorbance of each well was measured at 570 nm using a microplate reader. PBS (Acontrol) was used as the control. Survival rate (%) = (A/Acontrol) × 100 was calculated.

S. aureus CVCC546 = assay: MIC/MBC, micro broth dilution; type: cell-based, Staphylococcus aureus
Description: (§2) The minimum inhibitory concentration (MIC) of the peptides was assayed using the micro broth dilution method, which is an important indicator of the antibacterial activity of the AMPs ([Liu et al., 2021]). […] The MIC was defined as the lowest concentration of ones at which no visible bacterial growth was observed. All the assays were repeated thrice.

S. aureus ATCC43300 [4] = assay: MIC/MBC, micro broth dilution; type: cell-based, Staphylococcus aureus
Description: as §2

S. aureus ATCC25923 = assay: MIC/MBC, micro broth dilution; type: cell-based, Staphylococcus aureus
Description: as §2

S. aureus E48 = assay: MIC/MBC, micro broth dilution; type: cell-based, Staphylococcus aureus
Description: as §2

gram-negative bacteria = assay: MIC, summary over the panel; type: cell-based; details: summary of the panel
Description: as §2

Streptococcus = assay: MIC, summary over the panel; type: cell-based; details: including S. agalactiae ATCC13813, S. dysgalactiae CVCC3938, S. agalactiae CAU-FRI-2022-02
Description: as §2

S. aureus ATCC43300 [5] = assay: Salt (metal ion) stability read out as MIC; type: cell-based, Staphylococcus aureus; details: triplicates
Description: as §1

ICR mice = assay: In vivo safety: hematological indices; design: RDW-CV / MCHC: unit not given here; details: 10 mg/kg i.p. for six consecutive days, blood on 7th day
Description: Eight 6-week-old ICR mice were randomly divided into two groups and injected intraperitoneally with Ple-AB (10 mg/kg, body weight) and saline for six consecutive days. […] They were weighed daily, and blood was collected on the 7th day for hematological and biochemical analyses. Simultaneously, the heart, liver, spleen, lungs, and kidneys were collected for tissue fixation and hematoxylin–eosin (HE) staining to observe any pathological changes ([Shishkina et al., 2023]).

S. dysgalactiae CVCC3938 = assay: MIC/MBC, micro broth dilution; type: cell-based
Description: as §2

[6] = system: S. agalactiae CAU-FRI-2022-01; assay: MIC/MBC, micro broth dilution; type: cell-based
Description: as §2

[7] = system: S. agalactiae CAU-FRI-2022-02; assay: MIC/MBC, micro broth dilution; type: cell-based
Description: as §2

S. epidermidis ATCC12228 = assay: MIC/MBC, micro broth dilution; type: cell-based
Description: as §2

S. agalactiae ATCC13813 = assay: MIC/MBC, micro broth dilution; type: cell-based
Description: as §2

S. epidermidis ATCC35984 = assay: MIC/MBC, micro broth dilution; type: cell-based
Description: as §2

[8] = micro broth dilution, 1 × 10^5 CFU/mL, repeated thrice
[9] = bovine mastitis isolate, micro broth dilution, 1 × 10^5 CFU/mL, repeated thrice

`CC[C@H](C)[C@@H]1NC(=O)[C@H](CO)NC(=O)[C@H](CCCCN)NC(=O)[C@@H]2CSSC[C@@H](C(=O)N[C@@H](Cc3ccc(O)cc3)C(=O)O)NC(=O)[C@H](CCCCN)NC(=O)[C@@H]3CSSC[C@H](NC(=O)[C@H](CCC(N)=O)NC(=O)[C@H](CCSC)NC(=O)[C@H](CCC(=O)O)NC(=O)[C@H](CC(=O)O)NC(=O)[C@H](Cc4c[nH]c5ccccc45)NC(=O)[C@@H]4CCCN4C(=O)[C@@H](NC(=O)CNC(=O)[C@H](Cc4ccccc4)NC(=O)CN)CSSC[C@H](NC(=O)[C@H](Cc4ccc(O)cc4)NC(=O)CNC(=O)CNC(=O)[C@H](CCCCN)NC(=O)[C@H](Cc4ccc(O)cc4)NC(=O)CNC(=O)[C@H](CCCCN)NC1=O)C(=O)N[C@@H](C)C(=O)N[C@@H](CCCCN)C(=O)NCC(=O)NCC(=O)N[C@@H](Cc1ccccc1)C(=O)N[C@@H](C(C)C)C(=O)N3)C(=O)N[C@@H](Cc1c[nH]cn1)C(=O)N[C@@H](CC(N)=O)C(=O)N[C@@H](Cc1c[nH]cn1)C(=O)N2` [Ple-AB] (H-GFGCPWDEMQCHNHCKSIKGYKGGYCAKGGFVCKCY-OH; disulfide 4-26, 11-33, 15-35; N-terminus and C-terminus assumed) was tested. Which “MIC after Artificial Intestinal Fluid” value (S. aureus ATCC43300 [1]; Artificial Intestinal Fluid (trypsin), 1 h, read-out MIC, triplicates) did it give?
The value was 32 mg/L (≈ 8 µM).

What about the “Remaining share of initial activity after simulated intestinal fluids” value (S. aureus ATCC43300 [1]; simulated intestinal fluids (trypsin), 1 h (lasted for 2 h), from MIC) of the same molecule?
The value was “approximately 50%”.

And the “MIC after Simulated Gastric Fluid” value (S. aureus ATCC43300 [2]; Simulated Gastric Fluid (pepsin), 1-2 h, triplicates)?
Its value is 16 mg/L (≈ 4 µM).

What about the “MIC after artificial gastric juice” value (S. aureus ATCC43300 [2]; artificial gastric juice (pepsin), 2 h) of the same molecule?
The value was 16 mg/L (≈ 4 µM).

What about the Cytotoxicity ([3]; RAW264.7, 256 μg/mL) of the same molecule?
The Cytotoxicity was < 1%.

What about the Cell survival rate ([3]; RAW264.7, 2–256 μg/mL, 24 h, MTT, A570) of the same molecule?
Its Cell survival rate is “above 80%”.

And the MBC (S. aureus CVCC546; S. aureus CVCC546)?
The MBC was 16 mg/L (≈ 4 µM).

What about the MIC (S. aureus CVCC546; [8]) of the same molecule?
Its MIC is 8 mg/L (≈ 2 µM).

And the MBC (S. aureus ATCC43300 [4]; S. aureus ATCC43300)?
Its MBC is 32 mg/L (≈ 8 µM).

What about the MIC (S. aureus ATCC43300 [4]; [8]) of the same molecule?
The MIC was 16 mg/L (≈ 4 µM).

What about the MIC (S. aureus ATCC43300 [4]; untreated control of the stability test, triplicates) of the same molecule?
Its MIC is 16 mg/L (≈ 4 µM).

And the MBC (S. aureus ATCC25923; S. aureus ATCC25923)?
The MBC was 64 mg/L (≈ 16 µM).

And the MIC (S. aureus ATCC25923; [8])?
The MIC was 16 mg/L (≈ 4 µM).

And the MBC (S. aureus E48; S. aureus E48)?
The MBC was 16 mg/L (≈ 4 µM).

What about the MIC (S. aureus E48; bovine clinical strain, micro broth dilution, 1 × 10^5 CFU/mL, repeated thrice) of the same molecule?
The MIC was 4 mg/L (≈ 1 µM).

And the “Activity against gram-negative bacteria” value (gram-negative bacteria)?
The value was “inactive”.

What about the “MICs, range over Streptococcus” value (Streptococcus) of the same molecule?
The value was 2 to 4 µg/mL.

What about the MIC with salts (S. aureus ATCC43300 [5]; Ca^2+ (2.5 mM)) of the same molecule?
The MIC with salts was 16 mg/L.

What about the MIC with salts (S. aureus ATCC43300 [5]; Fe^3+ (4 μM)) of the same molecule?
The MIC with salts was 16 mg/L.

And the MIC with salts (S. aureus ATCC43300 [5]; K^+ (4.5 mM))?
Its MIC with salts is 16 mg/L.

And the MIC with salts (S. aureus ATCC43300 [5]; Mg^2+ (1 mM))?
The MIC with salts was 16 mg/L.

And the MIC with salts (S. aureus ATCC43300 [5]; NH4^+ (6 μM))?
Its MIC with salts is 16 mg/L.

And the MIC with salts (S. aureus ATCC43300 [5]; Na^+ (150 mM))?
The MIC with salts was 16 mg/L.

And the MIC with salts (S. aureus ATCC43300 [5]; Zn^2+ (8 μM))?
The MIC with salts was 16 mg/L.

What about the BASO (ICR mice) of the same molecule?
The BASO was 0.09 ± 0.027 10^9/L.

And the BASO % (ICR mice)?
Its BASO % is 1.09 ± 0.34%.

What about the EO (ICR mice) of the same molecule?
The EO was 0.19 ± 0.106 10^9/L.

What about the EO % (ICR mice) of the same molecule?
The EO % was 2.33 ± 1.24%.

And the HBG (ICR mice)?
The HBG was 128 ± 12 g/L.

And the HCT % (ICR mice)?
The HCT % was 41.3 ± 2.4%.

And the LYM (ICR mice)?
The LYM was 5.89 ± 0.585 10^9/L.

What about the LYM % (ICR mice) of the same molecule?
The LYM % was 74.8 ± 3.02%.

And the MCH (ICR mice)?
The MCH was 13.48 ± 0.67 pg.

And the MCHC (ICR mice)?
Its MCHC is 32.86 ± 1.73.

And the MCV (ICR mice)?
Its MCV is 41.73 ± 1.17 fL.

What about the MONO (ICR mice) of the same molecule?
Its MONO is 0.24 ± 0.066 10^9/L.

And the MONO % (ICR mice)?
Its MONO % is 3 ± 0.49%.

And the MPV (ICR mice)?
Its MPV is 6.63 ± 0.57 fL.

And the NEUT (ICR mice)?
Its NEUT is 1.49 ± 0.354 10^9/L.

What about the NEUT % (ICR mice) of the same molecule?
The NEUT % was 18.78 ± 1.66%.

And the PCT % (ICR mice)?
The PCT % was 0.02 ± 0.01%.

And the PDW % (ICR mice)?
Its PDW % is 15.85 ± 0.75%.

What about the PLCR % (ICR mice) of the same molecule?
Its PLCR % is 15.35 ± 3.65%.

And the PLT (ICR mice)?
The PLT was 782.3 ± 48.25 10^9/L.

And the RBC (ICR mice)?
The RBC was 9.44 ± 0.82 10^12/L.

What about the RDW-CV (ICR mice) of the same molecule?
The RDW-CV was 18.58 ± 1.97.

What about the RDW-SD % (ICR mice) of the same molecule?
The RDW-SD % was 44.55 ± 3.65%.

And the WBC (ICR mice)?
Its WBC is 7.89 ± 0.94 10^9/L.

What about the “Whole blood cell profiles versus control group” value (ICR mice) of the same molecule?
Its value is “not significantly different”.

What about the MBC (S. dysgalactiae CVCC3938; S. dysgalactiae CVCC3938) of the same molecule?
Its MBC is 4 mg/L (≈ 1 µM).

What about the MIC (S. dysgalactiae CVCC3938; [8]) of the same molecule?
The MIC was 4 mg/L (≈ 1 µM).

And the MBC ([6]; S. agalactiae CAU-FRI-2022-01)?
Its MBC is 32 mg/L (≈ 8 µM).

What about the MIC [6, 9] of the same molecule?
Its MIC is 4 mg/L (≈ 1 µM).

What about the MBC ([7]; S. agalactiae CAU-FRI-2022-02) of the same molecule?
The MBC was 4 mg/L (≈ 1 µM).

And the MIC [7, 9]?
Its MIC is 2 mg/L (≈ 0.5 µM).

And the MBC (S. epidermidis ATCC12228; S. epidermidis ATCC12228)?
The MBC was 8 mg/L (≈ 2 µM).

What about the MIC (S. epidermidis ATCC12228; [8]) of the same molecule?
Its MIC is 2 mg/L (≈ 0.5 µM).

And the MBC (S. agalactiae ATCC13813; S. agalactiae ATCC13813)?
The MBC was 4 mg/L (≈ 1 µM).

What about the MIC (S. agalactiae ATCC13813; [8]) of the same molecule?
The MIC was 4 mg/L (≈ 1 µM).

And the MBC (S. epidermidis ATCC35984; S. epidermidis ATCC35984)?
Its MBC is 8 mg/L (≈ 2 µM).

And the MIC (S. epidermidis ATCC35984; [8])?
Its MIC is 4 mg/L (≈ 1 µM).
